Series [1] is described as follows: Acute toxicity, LD50 mouse i.v. Particulars: in vivo, iv, read-out: Akute Toxizität LD50 Maus i.v. From the text: (§1) Die antihypertensive Wirksamkeit der erfindungsgemäßen Verbindungen kann in verschiedenen pharmakolgischen Tests nachgewiesen werden.
Series [2] deals with narkotisierten Hund. Put plainly: Blood pressure lowering in the anaesthetised dog. Particulars: narkotisierter Hund; compared with Bucindolol. Type of series: in vivo.
Text: as §1

Series [3] can be described thus: Acute toxicity, LD50 rat i.v. Particulars: in vivo, iv, read-out: Akute Toxizität LD50 Ratte i.v.
Text: as §1

For series [4], the system named is wachen Hund. Put plainly: Blood pressure lowering in the conscious dog. Type of series: in vivo. Particulars: wacher Hund; compared with Bucindolol.
Text: as §1

Among the data in patent EP0065295A1, “Tryptamine derivatives of thienyloxypropanol amines, process for their preparation, pharmaceutical compositions containing them and preparation of the latter” (HOECHST AKTIENGESELLSCHAFT, priority 1981, dated 1982) are LD50 and blutdrucksenkend values, retold here.

SMILES strings stand for the structures.

Broadly, the LD50 is the dose expected to kill half of the subjects tested. On to `CC(C)(Cc1c[nH]c2ccccc12)NCC(O)COc1ccsc1C(N)=O` (racemic) [Beispiel 2, 3-<3-[1,1-Dimethyl-2-(indol-3-yl)äthylamino]-2-hydroxy-- propoxy>-thiophen-2-carbonsäureamid], for which the results for the LD50 in series [1] and in series [3] were 74 mg/kg and 86 mg/kg, respectively. For the same compound, the blutdrucksenkend result in series [2] and in series [4] was “ähnlich stark und anhaltend blutdrucksenkend wie das bekannte Bucindolol” throughout.

In the case of `CC(C)(Cc1c[nH]c2ccccc12)NCC(O)COc1ccccc1C#N` (stereo not drawn) [Bucindolol, 2-<2-Hydroxy-3-<[2-(3-indolyl)-1,1-dimethyläthyl] amino>-propoxy>benzonitril, reference compound], the LD50 is 9.6 mg/kg in series [1] (Maus, i.v.) and 20.2 mg/kg in series [3] (Ratte, i.v.).
